The supplement of paper PMC11061612

Tests used:
Experiment in all cases: Bliss excess, mean over the matrix (fraction); higher = more synergy
[1] = system: TE-8 (Esophageal Squamous Cell Carcinoma)
Summary of the method: (§1)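 Bliss excess equals the observed combination effect minus the expected value EA + EB − EA·EB, where EA and EB are the effects of each agent alone. Combination Emax is the second-highest inhibition within the matrix. Inhibition was scaled from CellTiter-Glo 2.0 luminescence, with 0 set by vehicle wells and 1 by blank wells, after 72 hours of two-drug dosing of cells plated in 1536-well plates.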

NB12 (Neuroblastoma) = system: NB12 (Neuroblastoma)
Summary of the method: as §1

[2] = system: MFE-280 (Endometrial Carcinoma)
Summary of the method: as §1

SF539 (Glioblastoma) = system: SF539 (Glioblastoma)
Summary of the method: as §1

[3] = system: LK-2 (Squamous Cell Lung Carcinoma)
Summary of the method: as §1

[4] = system: RCM-1 (Colorectal Carcinoma)
Summary of the method: as §1

SK-MEL-2 (Melanoma) = system: SK-MEL-2 (Melanoma)
Summary of the method: as §1

IST-MES1 (Mesothelioma) = system: IST-MES1 (Mesothelioma)
Summary of the method: as §1

[5] = system: REH (B-Lymphoblastic Leukemia)
Summary of the method: as §1

[6] = system: SK-PN-DW (Other Solid Carcinomas)
Summary of the method: as §1

[7] = system: PC-3_[JPC-3] (Lung Adenocarcinoma)
Summary of the method: as §1

[8] = system: PSN1 (Pancreatic Carcinoma)
Summary of the method: as §1

[9] = system: RKN (Other Solid Carcinomas)
Summary of the method: as §1

[10] = system: CAL-62 (Thyroid Gland Carcinoma)
Summary of the method: as §1

[11] = system: VAL (B-Cell Non-Hodgkin's Lymphoma)
Summary of the method: as §1

[12] = system: L-1236 (Hodgkin's Lymphoma)
Summary of the method: as §1

[13] = system: SHP-77 (Small Cell Lung Carcinoma)
Summary of the method: as §1

[14] = system: COLO-680N (Esophageal Squamous Cell Carcinoma)
Summary of the method: as §1

[15] = system: OVMIU (Ovarian Carcinoma)
Summary of the method: as §1

[16] = system: OPM-2 (Plasma Cell Myeloma)
Summary of the method: as §1

Structure (SMILES) | Bliss excess [1] | Bliss excess (NB12 (Neuroblastoma)) | Bliss excess [2] | Bliss excess (SF539 (Glioblastoma)) | Bliss excess [3] | Bliss excess [4] | Bliss excess (SK-MEL-2 (Melanoma)) | Bliss excess (IST-MES1 (Mesothelioma)) | Bliss excess [5] | Bliss excess [6] | Bliss excess [7] | Bliss excess [8] | Bliss excess [9] | Bliss excess [10] | Bliss excess [11] | Bliss excess [12] | Bliss excess [13] | Bliss excess [14] | Bliss excess [15] | Bliss excess [16]
C[C@@H](Oc1cc(-c2cnn(C3CCNCC3)c2)cnc1N)c1c(Cl)ccc(F)c1Cl [Crizotinib] + Cn1cnc2c(F)c(Nc3ccc(Br)cc3Cl)c(C(=O)NOCCO)cc21 [Selumetinib] (first compound max 10 µM, 7x7, partner max 10 µM) | -0.0898 | -0.0665 | -0.0544 | -0.0212 | 0.011 | -0.0089 | 0.0382 | -0.0311 | -0.0309 | -0.0705 | -0.0549 | 0.0373 | 0.0181 | -0.0219 | -0.0516 | -0.0849 | 0.0404 | -0.039 | -0.0302 | -0.0463
CS(=O)(=O)CCNCc1ccc(-c2ccc3ncnc(Nc4ccc(OCc5cccc(F)c5)c(Cl)c4)c3c2)o1 [Lapatinib] + Cn1cnc2c(F)c(Nc3ccc(Br)cc3Cl)c(C(=O)NOCCO)cc21 [Selumetinib] (first compound max 10 µM, 7x7, partner max 10 µM) | -0.0505 | -0.11 | -0.063 | 0.0066 | -0.0131 | 0.0661 | 0.0062 | -0.0348 | -0.0363 | -0.0095 | -0.0292 | -0.0544 | -0.0081 | -0.0284 | -0.0549 | -0.0646 | -0.02 | -0.0171 | -0.102 | -0.0294
CS(=O)(=O)CCNCc1ccc(-c2ccc3ncnc(Nc4ccc(OCc5cccc(F)c5)c(Cl)c4)c3c2)o1 [Lapatinib] + NC1(c2ccc(-c3nc4ccn5c(=O)[nH]nc5c4cc3-c3ccccc3)cc2)CCC1 [MK-2206] (first compound max 10 µM, 7x7, partner max 10 µM) | -0.0004 | -0.0253 | -0.006 | -0.0077 | 0.0303 | -0.0323 | -0.0096 | 0.0433 | 0.0194 | 0.1 | -0.0174 | 0.0205 | -0.0169 | -0.0034 | -0.0147 | 0.0138 | -0.0136 | 0.0426 | 0.0659 | 0.0183
O=C(c1cc(Cc2n[nH]c(=O)c3ccccc23)ccc1F)N1CCN(C(=O)C2CC2)CC1 [Olaparib] + CC1(C)CCC(CN2CCN(c3ccc(C(=O)NS(=O)(=O)c4ccc(NCC5CCOCC5)c([N+](=O)[O-])c4)c(Oc4cnc5[nH]ccc5c4)c3)CC2)=C(c2ccc(Cl)cc2)C1 [Venetoclax] (first compound max 10 µM, 7x7, partner max 1 µM) | -0.0825 | 0.0811 | -0.053 | -0.0105 | 0.0039 | -0.0304 | 0.0044 | -0.0432 | 0.163 | 0.0049 | -0.0354 | -0.0231 | -0.0305 | -0.0329 | 0.0181 | -0.0009 | -0.0028 | -0.0584 | -0.067 | 0.0309
O=C(c1cc(Cc2n[nH]c(=O)c3ccccc23)ccc1F)N1CCN(C(=O)C2CC2)CC1 [Olaparib] + CN(CC[C@H](CSC1=CC=CC=C1)NC2=C(C=C(C=C2)S(=O)(=O)NC(=O)C3=CC=C(C=C3)N4CCC(CC4)[C@H](C5=CC=CC=C5C6=CC=C(C=C6)Cl)O)S(=O)(=O)C(F)(F)F)CCO [AZD4320] (first compound max 10 µM, 7x7, partner max 1 µM) | -0.0869 | 0.0362 | 0.0045 | -0.017 | 0.0748 | -0.0431 | -0.0397 | -0.107 | 0.0835 | 0.0012 | -0.0525 | -0.0224 | -0.0407 | -0.042 | 0.0212 | -0.0506 | 0.0133 | -0.0598 | -0.0979 | 0.0334
O=C(c1cc(Cc2n[nH]c(=O)c3ccccc23)ccc1F)N1CCN(C(=O)C2CC2)CC1 [Olaparib] + COc1nnc2ccc(N3CCC(c4ccc(OCCN5CCN(C)C(=O)[C@H]5C)cc4)CC3)nn12 [AZD5153] (first compound max 10 µM, 7x7, partner max 1 µM) | -0.0706 | -0.0203 | -0.0147 | -0.0258 | -0.0571 | -0.0473 | -0.0421 | -0.117 | 0.0378 | -0.0518 | -0.0518 | -0.0337 | 0.0101 | -0.0556 | -0.0784 | -0.0184 | 0.0113 | -0.0446 | -0.0521 | 0.0122
O=C(c1cc(Cc2n[nH]c(=O)c3ccccc23)ccc1F)N1CCN(C(=O)C2CC2)CC1 [Olaparib] + Cc1c2c(nn1C)CSCc1cc(n(C)n1)CSc1cc(c3ccccc3c1)OCCCc1c(C(=O)O)n(C)c3c-2c(Cl)ccc13 [AZD5991] (first compound max 10 µM, 7x7, partner max 1 µM) | -0.0467 | -0.0407 | -0.0341 | -0.0003 | 0.041 | -0.0412 | 0.0379 | -0.0434 | 0.0318 | -0.0065 | -0.0456 | -0.0506 | -0.0443 | -0.0483 | 0.0078 | -0.0851 | 0.0008 | -0.0543 | -0.0646 | 0.0251
N#Cc1cnc(Nc2cc(NC[C@H]3CNCCO3)c(C(F)(F)F)cn2)cn1 [SRA737] + C=CCn1c(=O)c2cnc(Nc3ccc(N4CCN(C)CC4)cc3)nc2n1-c1cccc(C(C)(C)O)n1 [AZD1775] (first compound max 10 µM, partner max 1 µM) | -0.0377 | 0.0199 | 0.0289 | 0.0293 | 0.115 | 0.0488 | 0.098 | 0.0282 | 0.162 | 0.0812 | -0.0239 | 0.0375 | 0.0124 | 0.043 | 0.0116 | -0.0475 | 0.0512 | 0.0422 | 0.0717 | 0.106
N#Cc1cnc(Nc2cc(NC[C@H]3CNCCO3)c(C(F)(F)F)cn2)cn1 [SRA737] + CCc1c2c(nc3ccc(O)cc13)-c1cc3c(c(=O)n1C2)COC(=O)[C@]3(O)CC [SN-38] (first compound max 10 µM, 7x7, partner max 0.3 µM) | 0.0052 | -0.114 | 0.0626 | -0.0174 | 0.154 | -0.0427 | 0.0931 | -0.0108 | -0.0324 | -0.0406 | -0.0536 | -0.0149 | 0.0914 | -0.0228 | -0.122 | -0.0136 | 0.13 | 0.026 | -0.0769 | 0.0183
N#Cc1cnc(Nc2cc(NC[C@H]3CNCCO3)c(C(F)(F)F)cn2)cn1 [SRA737] + Nc1ccn([C@@H]2O[C@H](CO)[C@@H](O)C2(F)F)c(=O)n1 [Gemcitabine] (first compound max 10 µM, 7x7, partner max 0.3 µM) | -0.022 | 0.0372 | 0.0527 | 0.0222 | 0.141 | 0.138 | 0.0686 | 0.0486 | 0.0113 | -0.0377 | 0.0514 | 0.0721 | 0.118 | 0.0436 | -0.125 | 0.0485 | 0.141 | 0.0092 | -0.0588 | 0.0238
Cc1nc(-c2cn3c(n2)-c2ccc(-c4cnn(C(C)(C)C(N)=O)c4)cc2OCC3)n(C(C)C)n1 [Taselisib] + O=C(Nc1ccc2[nH]nc(-c3ccncc3)c2c1)[C@@H]1CCN(CC(=O)N2CCN(c3ccc(-c4ncccn4)cc3)CC2)C1 [SCH772984] (first compound max 10 µM, 7x7, partner max 5 µM) | -0.0514 | -0.0116 | 0.0107 | 0.0465 | 0.0371 | 0.1 | 0.136 | -0.0307 | 0.102 | -0.0332 | 0.0293 | 0.0797 | 0.0798 | 0.0096 | -0.002 | 0.0543 | -0.0221 | 0.0219 | 0.0699 | 0.0779
CC1(C)CCC(CN2CCN(c3ccc(C(=O)NS(=O)(=O)c4ccc(NCC5CCOCC5)c([N+](=O)[O-])c4)c(Oc4cnc5[nH]ccc5c4)c3)CC2)=C(c2ccc(Cl)cc2)C1 [Venetoclax] + CS(=O)(=O)CCNCc1ccc(-c2ccc3ncnc(Nc4ccc(OCc5cccc(F)c5)c(Cl)c4)c3c2)o1 [Lapatinib] (first compound max 1 µM, 7x7, partner max 10 µM) | -0.0453 | -0.0427 | -0.0477 | -0.0166 | 0.0165 | -0.0112 | -0.0207 | -0.0357 | 0.0755 | -0.0284 | -0.0332 | -0.0211 | -0.0482 | -0.0442 | -0.0033 | -0.0583 | 0.0197 | -0.0166 | -0.0328 | 0.0306
